Data set [1] has as its system MDA-MB-231 breast cancer cells. Description: LDH cytotoxicity assay. The conditions noted are these: MDA-MB-231 cells; 50 μM and 100 μM. It is filed as cell-based, human. On the procedure:
FIG. 3. (A) Effect of HVS treatment on HGF-stimulated growth of Met-dependent MDA-MB-231, MDA-MB-468, MCF-7. and BT-474 breast cancer cells after 72 h treatment period, compared to DMSO as vehicle control. Viable cell count was determined using MTT assay. Vertical bars indicate the mean cell count±SEM of N=3 in each treatment group; (−)-oleocanthal was used as a positive control at 20 μM. (B) Effect of HVS treatment on HGF-stimulated growth of Met-independent T-47D breast cancer cells after 72 h treatment period. Viable cell count was determined using MTT assay. Vertical bars indicate the mean cell count±SEM of N=3 in each treatment group. […] Triton X-100 was used as a positive control to cause the breakdown of all the cells and induce the total possible LDH release. (D) Effects of HVS treatment on the viability of non-tumorigenic human MCF10A mammary epithelial cells after a 24 h treatment period, compared to DMSO as vehicle control. (E) As in panel (A) but without HGF. […] Viable cell count was determined using MTT assay. Vertical bars indicate the mean cell count±SEM of N=3 in each treatment group; doxorubicin was used as a positive control at 10 μM dose. *P<0.05 as compared with vehicle treated control.
[…]. Selection of the aforementioned breast cancer cells was based on their phenotypes. […]

Data set [2] relates to c-Met phosphorylation in MDA-MB-231, MCF-7, and BT-474 mammary tumor cells. Description: Western blot of HGF-induced c-Met activation in breast cancer cells. The class given is cell-based, human. On the procedure:
FIG. 4. A) Effect of HVS treatment on HGF-induced c-Met activation in human breast cancer cells using Western Blot analysis. […] The visualization of β-tubulin was used as a loading control. (B) Effect of HVS on HGF-induced c-Met activation and its downstream mitogenic signaling in DU145 human prostate cancer cells, as compared to vehicle-treated control group, using Western Blot analysis. Cells were pre-treated for 30 minutes with either HVS at 0.1, 0.3, 1, and 5 μM or (−)-oleocanthal at 5, 10, and 20 μM doses in serum-free 0.4-media. 33 ng/mL HGF was then added for 30 minutes. Whole cell lysates were collected and assayed by Western Blot. The visualization of α-tubulin was used as a loading control. Representative Western Blots from each experiment are shown, N=3.
Activation of c-Met prevents apoptosis and maintains cancer cell survival through activation of PI3K and subsequent Akt-NFκB activation.
(In general: Immunoblotting shows a protein as a band on a membrane.)

The subject of a further data set is DU145 spheroids. The data set can be described thus: 3D spheroid growth, IncuCyte. It is filed as cell-based, human. The conditions noted are these: 72 hours. On the procedure:
FIG. 9B: DU145 cells were grown in 10% FBS DMEM. Cells were collected after trypsinization and resuspended in phenol-red free DMEM with 10% FBS. Cells were labeled with Cell-Tracker Red (Life Technologies) for 5 minutes. After labeling cells were washed with PBS and transfer into 96-well Corning 7007 ULA round bottom plates at 1,000 cells/well in 100 μl phenol-red free media with 10% FBS and 5% Matrigel. […] Spheroids were grown at 37° C. and 5% CO2 in IncuCyte ZOOM (Essen Bioscience). Images were acquired every 4 h for a period of 72 h post-treatment and software analysis was design to identify the red object in the well. The data were expressed as fold increase in spheroids size at the end of the treatment using the “average red object area in the well” as determined by the IncuCyte software analysis. FIG. 9C: Visually representative spheroids that are quantitated in FIG. 9B.
To determine the effectiveness of these compounds under 3D growth conditions which more accurately predict effectiveness of new drugs in humans, DU145 spheroids were formed and allowed to grow for 72 hours. Images were recorded every 4 hours using the Incucyte platform. […] Compounds 9 and 10, at 10 micromolar reduced spheroid growth by about 50 percent (not shown).

The subject of data set [3] is DU145 human prostate cancer cells. Description: Cell scattering in 2D monolayer cultures. To be noted: 16 h, listed as HVS. The class given is cell-based. On the procedure:
FIG. 6. (A) Effect of HVS on HGF-induced migration of the highly metastatic MDA-MB-231 human breast cancer cells in wound healing assay. […] Vertical bars indicate the percentage of wound closure at 24 h after wounding, calculated relative to the wound distance at zero time±SEM of N=6 in each treatment group. SU11274 and (−)-oleocanthal were used as positive controls at 10 μM. Right panel represents photomicrographs of wound healing assay showing HVS treatment at three different concentrations (1.25, 2.5, and 5 μM) blocked the migration of MDA-MB-231 cells in response to HGF stimulation, as compared to DMSO as a vehicle control. (B) Effect of HVS on HGF-induced cell invasion of the highly aggressive MDA-MB-231 human breast cancer cells using Cultrex® BME cell invasion assay. The cells were treated with different concentrations of HVS for 24 h. Vertical bars indicate the percentage of cells invading the basement membrane at the end of treatment period±SEM of N=3 in each treatment group. (−)-Oleocanthal was used as a positive control at 20 μM dose.*P<0.05 as compared with vehicle-treated control. (C) Effect of HVS on HGF-induced scattering of the DU145 human prostate cancer cells in 2D monolayer cultures, compared to DMSO as vehicle control. Cells were treated with indicated concentrations of HVS for 30 minutes in serum-free media. […]

“Also recorded” adds a separate entry of the source.

`COc1cc(CCOC(=O)/C=C/c2cc(OC)c(O)c(OC)c2)ccc1O` [Compound 8, (E)-4-hydroxy-3-methoxyph-ethyl 3-(4-hydroxy-3,5-dimethoxyphenyl) acrylate]: the LDH release entry in data set [1] is recorded as “minimal LDH release”. Also, the “HGF-induced c-Met phosphorylation” value in data set [2] (72 h treatment) was “significant inhibition”. Besides, the “total c-Met levels” value in data set [2] (at the tested concentrations) is reported as “did not affect”. The “reduction of spheroid growth” value in the data set on DU145 spheroids (10 micromolar) is listed as “over 80%”. Moreover, the “lowest concentration blocking spheroid growth” value in the data set on DU145 spheroids is no more than 1 µM. Besides, in data set [3] (33 ng/mL HGF), the HGF-induced cell scattering result is “significantly reduced; also recorded: appeared to block”. In addition, in data set [3] (100 ng/mL EGF, similar treatment doses), the EGF-induced cell scattering entry is given as “do not block; also recorded: not inhibited”.

These data come from patent US10959968B2, “Methods for treating c-Met-dependent cancers” (Board of Supervisors of Louisiana State University and …, priority 2016, dated 2021).
